Laboratory results published in PubChem BioAssay (NCI).
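All cell lines were grown in 96-well plates and treated with compound for 48 hours. TGI: total growth inhibition.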

What was measured:
Assay in all cases: inhibition of tumour cell growth, NCI panel, 48 h
M14 melanoma = tested on: M14 melanoma
MDA-MB-435 = tested on: MDA-MB-435
HOP-62 NSCLC = tested on: HOP-62 NSCLC
OVCAR-3 ovarian = tested on: OVCAR-3 ovarian
NCI-H226 lung = tested on: NCI-H226 lung
K-562 leukemia = tested on: K-562 leukemia
LOX IMVI melanoma = tested on: LOX IMVI melanoma
NCI-H23 lung = tested on: NCI-H23 lung
KM20L2 colon = tested on: KM20L2 colon
LXFL 529 NSCLC = tested on: LXFL 529 NSCLC
SNB-78 CNS = tested on: SNB-78 CNS
DMS 114 small cell lung = tested on: DMS 114 small cell lung
M19-MEL melanoma = tested on: M19-MEL melanoma
DLD-1 colon = tested on: DLD-1 colon
XF 498 CNS = tested on: XF 498 CNS
DMS 273 small cell lung = tested on: DMS 273 small cell lung

| SMILES | TGI (M14 melanoma) [µM] | TGI (MDA-MB-435) [µM] | TGI (HOP-62 NSCLC) [µM] | TGI (OVCAR-3 ovarian) [µM] | TGI (NCI-H226 lung) [µM] | TGI (K-562 leukemia) [µM] | TGI (LOX IMVI melanoma) [µM] | TGI (NCI-H23 lung) [µM] | TGI (KM20L2 colon) [µM] | TGI (LXFL 529 NSCLC) [µM] | TGI (SNB-78 CNS) [µM] | TGI (DMS 114 small cell lung) [µM] | TGI (M19-MEL melanoma) [µM] | TGI (DLD-1 colon) [µM] | TGI (XF 498 CNS) [µM] | TGI (DMS 273 small cell lung) [µM] |
| --- | --- | --- | --- | --- | --- | --- | --- | --- | --- | --- | --- | --- | --- | --- | --- | --- |
| COC(OC)[C@@H]1OC[C@H](n2ccc(=O)[nH]c2=O)[C@H]1O | > 100 | > 100 | > 100 | > 100 | > 100 | > 100 | > 100 | > 100 |  |  |  |  |  |  |  |  |
| O=C1/C(=C\c2cccc(Oc3ccccc3)c2)SC(c2ccccc2)N1Cc1ccccc1 (stereo not drawn) | 66.7 | 76.2 | > 100 | 70 | 90.9 | > 100 | 32 | 62.7 |  |  |  |  |  |  |  |  |
| CC(O)/C=C/C1OC(=O)CC1Nc1ccc(C=O)cc1 (stereo not drawn) | 41.9 | > 100 | 77.4 | > 100 | > 100 | > 100 | > 100 | > 100 |  |  |  |  |  |  |  |  |
| C=CCc1cccc(/C(O)=C/C(=O)/C=C/c2ccccc2Cl)c1O | > 100 | > 100 | 61.2 | 76.3 | > 75.6 | > 25.2 | 24.6 | 21.8 |  |  |  |  |  |  |  |  |
| COc1ccc(N2C(=O)C3c4[nH]c5ccc(OC)cc5c4C4CCC(c5ccccc5)CC4C3C2=O)cc1 (stereo not drawn) | > 56.8 | 68.4 | 20.8 | 37 | > 100 | > 43.9 | 56.3 | 46.6 |  |  |  |  |  |  |  |  |
| CCOC(=O)n1ccc2c(C(=O)OC)c(C(=O)OC)cc(/C(=C/C(=O)OC)C(=O)OC)c21 | > 100 | > 100 | > 100 | > 100 | > 100 | > 100 | > 100 | > 100 |  |  |  |  |  |  |  |  |
| COC(=O)C(Cc1ccccc1)NP(=O)(O)OCC1OC(n2ccc(N)nc2=O)C(O)C1O (stereo not drawn) | > 100 | > 100 | > 100 | > 100 | > 100 | > 100 | > 100 | > 100 |  |  |  |  |  |  |  |  |
| Clc1ccc(C2=Cc3nc2c(-c2ccccc2)c2ccc([nH]2)c(-c2ccccc2)c2nc(c(-c4ccccc4)c4ccc([nH]4)c3-c3ccccc3)C=C2)cc1 | > 62.5 | > 62.5 | > 62.5 | > 62.5 | > 62.5 | > 62.5 | > 62.5 | > 62.5 |  |  |  |  |  |  |  |  |
| O=C1C2CCCCC2C(=O)N1n1c(Cc2ccccc2)n[nH]c1=O (stereo not drawn) | > 100 | > 100 | > 100 | > 100 | > 100 | > 100 | > 100 | > 100 |  |  |  |  |  |  |  |  |
| CCC12CN(C(=O)OC)C3C(Br)C1CCC(=O)C32 (stereo not drawn) | > 100 | > 100 | > 100 | > 100 | > 100 | > 100 | > 100 | > 100 |  |  |  |  |  |  |  |  |
| COc1ccc(/C=C2/C(=O)N(/C=C3\C(=O)Oc4ccccc4C3=O)C(=NC(C)=O)N2C)cc1OC | > 100 | > 100 | > 100 | > 41.7 | > 100 | > 100 | > 100 | > 100 |  |  |  |  |  |  |  |  |
| N#CC(C#N)=C(N)/C(C#N)=C/c1ccc(O)c(O)c1 | > 100 | > 100 | > 100 | > 100 | > 100 | > 100 | > 100 | > 100 | > 100 | > 100 | > 100 | > 100 | > 100 | > 100 | > 100 | > 100 |
| O=C(Cc1ccccc1)Nc1nc2ccc(Cl)cc2c2nc(-c3ccco3)nn12 | > 100 | > 100 | > 62.4 | > 100 | > 82.7 | > 100 | > 100 | > 100 |  |  |  |  |  |  |  |  |
| CNc1ccc(Cl)cc1C(=O)N1CCC[C@H]1CO | > 100 | > 100 | > 100 | > 100 | > 100 | > 100 | > 100 | > 100 |  |  |  |  |  |  |  |  |
| CC(=S)NC=C(C(N)=O)C(N)=O | > 100 | > 100 | > 100 | > 100 | > 100 | > 100 | > 100 | > 100 |  |  |  |  |  |  |  |  |
| O=C(O)C(C(F)(F)F)C(F)(F)F (tested in a mixture with another compound) | > 100 | > 100 | > 100 | > 100 | > 100 | > 100 | > 100 | > 100 |  |  |  |  |  |  |  |  |
| C#C[C@@H](OC(=O)c1ccc([N+](=O)[O-])cc1)[C@@H]1C[C@H]2O[C@@H]([C@H](C/C=C/CC)OC(=O)c3ccc([N+](=O)[O-])cc3)C[C@H]2O1 | > 100 | > 100 | > 100 | > 100 | > 100 | > 100 | > 100 | > 100 |  |  |  |  |  |  |  |  |
| CN(C)c1cccc2c(S(=O)(=O)NCCCNCCN)cccc12 | 33.9 | 65.8 | > 100 | > 100 | > 100 | 43.1 | > 100 | > 100 |  |  |  |  |  |  |  |  |
| Cc1ccc(C2SCc3nc4ccccc4n32)cc1 (stereo not drawn) | > 100 | 5.01 | 23.7 | > 100 | 6.55 | 14.8 | 40.6 | 24.3 |  |  |  |  |  |  |  |  |
| COc1ccc(/C=N/NC(=O)CSc2nc(-c3ccccc3)c(-c3ccccc3)[nH]2)cc1OC | 33.8 |  | 72.5 | 39.7 | 80.4 |  | 44.8 | 76.7 | 41.6 | 55.1 |  | > 100 | 35.3 | > 100 |  | 40.7 |
| CCOC(=O)COc1cc(-c2ccccc2)nc2cc(F)ccc12 | > 100 | > 100 | > 100 | > 100 | > 100 | > 100 | > 100 | > 100 |  |  |  |  |  |  |  |  |
| Cc1cc(=O)[nH]c(Sc2ccc([N+](=O)[O-])cc2[N+](=O)[O-])n1 | 32.3 | > 55.1 | > 58.5 | 31.2 | 40.9 | > 100 | 8.67 | 41.1 |  |  |  |  |  |  |  |  |
